The text below walks through data of patent EP4786454A1, “HETEROARYL DERIVATIVE AND USE THEREOF” (priority 2023, dated 2025).

Series [1] addresses T1, hKCNQ2/3 (Homo sapiens, UniProt O43525+O43526).
T1 construct: expressed in transfected cells; host or cells: CHO
Nature of the series: hKCNQ2/3 thallium flux assay (FLIPR). It counts as cell-based. The following applies: agonistic effect, CHO cell line stably expressing hKCNQ2/3. The source says: The present disclosure also provides the following assay methods: • Assay method 1: hKCNQ2/3 thallium flux assay • Purpose of the assay: To determine the in vitro concentration-response relationship of the compounds in a CHO cell line stably expressing hKCNQ2/3 using FLIPR thallium flux assay.
CHO cells stably transfected with hKCNQ2/3.
The cell line was passaged three times a week at a split ratio of 1:2 to 1:3. When the cells grew to a confluence degree of greater than 80% in a T-75 cell flask, they were digested with 0.25% trypsin-EDTA solution for about 1 minute, and then the cells were transferred from the cell flask for passage. According to the split ratio, the cells were transferred to another T-75 cell flask containing complete cell growth culture medium. Note: In order to maintain the logarithmic growth of cells, the cell growth should be maintained in a subconfluent monolayer state. The cells were passaged every 2 to 3 days according to the cell doubling time.
• (1) Day 1, cell preparation: The cells were digested according to the above method, and the cell density and viability were determined using Cell Countess. The volume of the single-cell suspension was adjusted with complete cell growth culture medium. Then, the hKCNQ2/3_CHO cells were seeded at a density of approximately 20,000 cells/well (30 µL/well) into a PDL-precoated 384-well plate. Then, the plate was incubated at 37 °C with 5% CO2 humidified air in an incubator overnight. • (2) Day 2, compound preparation: A test compound was diluted to a storage concentration with dimethyl sulfoxide (DMSO), and stored in a freezer at -20 °C. A compound addition program was set up on the ECHO liquid workstation, and the compound was added to the plate using the ECHO liquid workstation. A positive control was prepared using Retigabine (RTG) with a maximum concentration of 100 µM, which was subjected to a 3-fold dilution, resulting in a total of 9 doses constituting the plate map required for plating. Prepare the plate using a stimulation buffer containing 5 mM K^+ and 1 mM Tl^+. Note: 1) K2SO4 and Tl2SO4 were prepared in a 1× chloride-free buffer. When different voltage-gated potassium channels were involved, the concentrations of Tl^+ and K^+ were needed to be adjusted. The concentration of Tl^+ was approximately 0.5 mM to 5 mM, and the concentration of K^+ was approximately 5 mM to 30 mM. 2) Each 1 mM solution of K2SO4 and Tl2SO4 contained 2 mM K^+ and Tl^+. The final concentration should be calculated based on the ion concentrations. 3) TlCl was easily precipitated and a chloride-free buffer was required. • (3) Day 2, assay testing: When the cells reached the confluence degree, the cell analysis plate was taken out from the incubator. The assay buffer was prepared and the Tl^+ dye (Molecular Devices # R8222) was diluted. The culture medium was discarded using the liquid workstation Bravo and 25 µL of Tl^+ dye was added to each well. The plate was incubated for 1 hour, and then the cell analysis plate, composite plate, and FLIPR tip were placed in FLIPR^TETRA (Molecular Devices, USA) for FLIPR assay. The tip was set up, and then the baseline was read for 60 seconds. Then, 12.5 µL from the composite plate (3×) was added to the cell analysis plate, and the data were recorded for at least 5 minutes at the same time. • (4) Data processing: The maximum signal was generated with FLIPR software. Excel (2013) and Prism 6.01 were used for data analysis. The data quality control was performed with S/B > 2.00 and Z-factor > 0.50. IC50 or EC50 was defined as the midline between the lowest and the highest plateaus, and it was calculated using a four-parameter logistic model with Prism 6.01.
Purpose of the assay: To determine the in vitro concentration-response relationship of the compounds in a CHO cell line stably expressing hKCNQ2/3 using FLIPR thallium flux assay. […]

For series [2], the system named is male CD-1 mice. Nature of the series: Maximal electroshock-induced epilepsy model, behavioral pharmacodynamics. Format: in vivo. The following applies: 5 mg/kg orally, one hour before electrical stimulation. An excerpt:
This study used behavioral tests in male CD-1 mice to investigate the effects of test compounds on acute epileptic seizures behavior induced by maximal electroshock.
Male CD-1 mice (25 to 35g) were used as the experimental animals and fed with standard feed (Beijing Vital River Laboratory Animal Technology Co., Ltd.).
After arriving at the animal facility, the experimental animals needed to acclimatize for at least one week. The mice were observed daily for vital signs, and randomly divided into groups according to their body weights one day before the drug administration. One hour before the electrical stimulation, different dosages of the test compound were orally administered to each group. On the day of the assay, the male CD-1 mice in each group were anesthetized locally at the cornea with 2% lidocaine. Then, silver bipolar electrodes were used to electrically stimulate the cornea of the mice with 18 mA, 60 Hz, a pulse width of 0.6 ms, and a stimulation time of 1 s to induce seizures. Subsequently, the latency of seizures and the duration of limb rigidity in mice after the electrical stimulation were observed, and the protection rate from seizures for each group was statistically analyzed.
In general terms: The maximal electroshock test induces tonic seizures with an electrical stimulus.

Series [3] in a line: Plasma protein binding rate, equilibrium dialysis (human plasma). It counts as in vitro ADME. The following applies: dialysis 4 hours at 37 °C, read-out: Unbound PPB%. On the procedure: (§1) The protein binding rates of the compounds in the plasma of CD-1 mice, Sprague-Dawley rats, beagle dogs, cynomolgus monkeys, and human were determined using equilibrium dialysis method.
(§2) Commercially available plasma, dual-layer dialysis membrane, and equilibrium dialysis device.
(§3) The dual-layer dialysis membrane was soaked in ultrapure water for about 1 hour, removed and then divided into two parts. It was then soaked in an ethanol:water (20:80, v:v) solution for 20 minutes or placed at 2 to 8 °C, and it was valid for 1 month. Before starting the assay, the dialysis membrane was rinsed twice with ultrapure water and then soaked in ultrapure water for another 20 minutes for later use.
(§4) On the day of assay, the frozen plasma of CD-1 mice, Sprague-Dawley rats, beagle dogs, cynomolgus monkeys, and human was thawed in running cold tap water. After the plasma was completely thawed, the plasma was centrifuged at 3220×g for 5 minutes, and the suspended substances and precipitates in it were removed. The pH of the plasma was determined. The plasma with a pH in the range of 7.4 ± 0.1 was directly used, or the plasma with a pH in the range of 7.4 ± 0.1 after an adjustment with 1% phosphoric acid or 1M sodium hydroxide was used.
(§5) Preparation process of plasma samples: 597 µL of blank plasma from each of the above five species was taken, respectively. 3 µL of a compound or warfarin working solution was added, and the mixture was mixed thoroughly to give a plasma sample with a compound concentration of 2 µM and a warfarin concentration of 2 µM (n=1). The concentration of the organic phase DMSO was 0.5%. The sample was thoroughly mixed before proceeding to the next step.
(§6) Preparation process of T0 samples: 50 µL of a plasma sample containing the compound and warfarin was transferred to a sample receiving plate (n=3), and 50 µL of blank PBS was immediately added. Then, 500 µL of stop solution was added to the T0 sample of the compound and warfarin, and the mixture was stored at 2 to 8 °C, waiting to be processed later together with other dialysis-processed samples.
(§7) Dialysis process of plasma samples: 100 µL of a compound (2 µM) and warfarin (2 µM) plasma sample was added to the donor of each dialysis well (n=3), and 100 µL of blank PBS was added to the corresponding receiver of the dialysis well. The dialysis plate was placed in a 5% CO2 incubator, and incubated at 37 °C with shaking at approximately 100 rpm for 4 hours.
(§8) After the dialysis was completed, 50 µL of dialysis-processed PBS sample and dialysis-processed plasma sample (n=3) were transferred to a new 96-well plate (sample receiving plate). The corresponding volume of the corresponding blank plasma or PBS was added to the sample to make the final volume of each sample well 100 µL, with a plasma to PBS volume ratio of 1:1. All the samples were analyzed by LC-MS/MS after protein precipitation.
(§9) The formulas for calculating the unbound fraction (%Unbound), bound fraction (%Bound) and recovery fraction (%Recovery) of a compound are as follows: %Unbound = 100 ×F / T %Bound = 100 - %Unbound %Recovery = 100 ×(F + T)/ T0 wherein F is the concentration of the compound at the receiver of dialysis; T is the concentration of the compound at the supply end of dialysis; and T0 is the concentration of the compound in the plasma at time zero.

Series [4] can be described thus: Plasma protein binding rate, equilibrium dialysis (rat plasma). It counts as in vitro ADME, Sprague-Dawley rats. The following applies: r (Sprague-Dawley rat plasma), dialysis 4 hours at 37 °C, read-out: Unbound PPB%. The procedure:
as §1, §2, §3, §4, §5, §6, §7, §8, §9
For orientation: In equilibrium dialysis free small molecules cross a membrane that holds back macromolecules.

Series [5] can be described thus: Plasma protein binding rate, equilibrium dialysis (mouse plasma). Format: in vitro ADME, CD-1 mice. The following applies: m (CD-1 mouse plasma), dialysis 4 hours at 37 °C, read-out: Unbound PPB%. On the procedure:
as §1, §2, §3, §4, §5, §6, §7, §8, §9

A short description of series [6]: Plasma protein binding rate, equilibrium dialysis (dog plasma). It counts as in vitro ADME, beagle dogs. The following applies: d (beagle dog plasma), dialysis 4 hours at 37 °C, read-out: Unbound PPB%. The procedure:
as §1, §2, §3, §4, §5, §6, §7, §8, §9

Series [7] in a line: Plasma protein binding rate, equilibrium dialysis (monkey plasma). Format: in vitro ADME, cynomolgus monkeys. To be noted: c (cynomolgus monkey plasma), dialysis 4 hours at 37 °C, read-out: Unbound PPB%. On the procedure:
as §1, §2, §3, §4, §5, §6, §7, §8, §9

T1 sequence (O43525 whole entry): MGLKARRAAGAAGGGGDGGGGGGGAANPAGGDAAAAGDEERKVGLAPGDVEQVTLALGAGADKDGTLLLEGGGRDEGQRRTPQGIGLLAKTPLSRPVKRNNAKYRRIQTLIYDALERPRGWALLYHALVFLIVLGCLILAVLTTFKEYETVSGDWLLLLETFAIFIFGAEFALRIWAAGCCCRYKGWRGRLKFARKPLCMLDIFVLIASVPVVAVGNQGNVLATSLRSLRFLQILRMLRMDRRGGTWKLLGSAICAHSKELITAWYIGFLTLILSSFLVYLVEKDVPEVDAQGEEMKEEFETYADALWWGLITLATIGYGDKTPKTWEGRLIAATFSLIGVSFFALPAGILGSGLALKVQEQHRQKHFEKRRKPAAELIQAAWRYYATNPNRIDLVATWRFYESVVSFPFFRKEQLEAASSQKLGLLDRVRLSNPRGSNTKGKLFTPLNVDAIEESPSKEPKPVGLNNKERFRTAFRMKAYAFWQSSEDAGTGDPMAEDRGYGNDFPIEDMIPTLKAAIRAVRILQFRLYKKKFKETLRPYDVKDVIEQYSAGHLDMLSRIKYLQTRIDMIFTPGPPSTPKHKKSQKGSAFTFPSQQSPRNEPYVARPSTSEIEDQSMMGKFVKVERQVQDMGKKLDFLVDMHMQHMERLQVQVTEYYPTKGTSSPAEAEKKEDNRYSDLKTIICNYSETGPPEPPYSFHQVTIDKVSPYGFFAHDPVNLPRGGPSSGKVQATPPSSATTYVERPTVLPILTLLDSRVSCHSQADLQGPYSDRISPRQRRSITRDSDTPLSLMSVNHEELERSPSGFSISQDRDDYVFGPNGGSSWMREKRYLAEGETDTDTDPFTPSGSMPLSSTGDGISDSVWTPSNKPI
T1 sequence (O43526 whole entry): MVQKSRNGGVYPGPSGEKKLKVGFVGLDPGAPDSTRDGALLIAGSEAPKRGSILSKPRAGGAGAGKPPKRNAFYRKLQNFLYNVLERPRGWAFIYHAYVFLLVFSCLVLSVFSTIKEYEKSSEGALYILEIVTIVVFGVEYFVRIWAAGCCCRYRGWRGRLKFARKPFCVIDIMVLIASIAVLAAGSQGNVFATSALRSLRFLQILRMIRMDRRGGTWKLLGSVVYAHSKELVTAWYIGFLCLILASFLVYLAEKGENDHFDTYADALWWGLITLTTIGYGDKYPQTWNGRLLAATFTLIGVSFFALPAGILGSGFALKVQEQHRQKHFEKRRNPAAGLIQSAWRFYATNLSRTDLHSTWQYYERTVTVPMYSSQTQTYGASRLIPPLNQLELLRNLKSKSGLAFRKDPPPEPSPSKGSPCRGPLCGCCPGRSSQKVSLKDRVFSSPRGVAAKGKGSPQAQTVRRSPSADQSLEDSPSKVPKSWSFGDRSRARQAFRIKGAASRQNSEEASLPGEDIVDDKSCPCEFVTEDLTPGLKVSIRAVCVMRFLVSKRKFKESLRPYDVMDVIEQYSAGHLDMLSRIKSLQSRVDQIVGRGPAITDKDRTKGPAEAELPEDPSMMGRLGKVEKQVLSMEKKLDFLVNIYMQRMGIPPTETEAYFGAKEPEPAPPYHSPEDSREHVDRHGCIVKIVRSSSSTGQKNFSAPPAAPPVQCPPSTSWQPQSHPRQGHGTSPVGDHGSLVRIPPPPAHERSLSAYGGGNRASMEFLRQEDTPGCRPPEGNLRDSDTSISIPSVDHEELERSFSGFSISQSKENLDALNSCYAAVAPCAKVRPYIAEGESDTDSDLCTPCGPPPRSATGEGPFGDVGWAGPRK

Broadly, the EC50 is the midpoint of the concentration-response curve. The compound `CC(C)(C)CC(=O)Nc1nc2cc3c(cc2n1C1CCC1)CCC3` [Compound 7] yielded an EC50 in series [1] of 420 nM. Also, in series [2], the “Protection rate from seizures” value was found to be 66.67%. Also, the fraction unbound at 4 h, 2 µM in series [3] was determined as 0.004; in series [4] it was 0.003; in series [5], 0.003; in series [6], 0.006; in series [7] it was 0.012.
`CC(C)(C)CC(=O)Nc1nc2c(F)c3c(cc2n1C1CCC1)CCC3` [Compound 8] showed an EC50 in series [1] of 420 nM. In addition, in series [2], the “Protection rate from seizures” value was 50%.
`CC(C)(C)CC(=O)Nc1nc2cc3c(cc2n1C1(C)CCC1)CCC3` [Compound 9] had an EC50 in series [1] of 160 nM. The “Protection rate from seizures” value in series [2] is 50%. Further, the fraction unbound at 4 h, 2 µM in series [3] turned out to be 0.003; in series [4] it was 0.002; in series [5], 0.002; in series [6] it was 0.004; in series [7], 0.004.
In series [1], `CC(C)(C)CC(=O)Nc1nc2cc3c(cc2n1C(C)(C)C)CCC3` [Compound 10] showed an EC50 of 120 nM. The “Protection rate from seizures” value in series [2] was 33.33%.
